Test results as given in PMC6216040, “Repurposing of an old drug: In vitro and in vivo efficacies of buparvaquone against Echinococcus multilocularis” (International Journal for Parasitology: Drugs and Drug …, 2018).
≈ marks a conversion by molar mass, not a printed value. Read-outs that look alike come from different tables or passages of the source.

What was measured:
[1] = system: E. multilocularis metacestodes; assay: PGI-assay: drug-induced damage on in vitro cultured metacestodes (Pathogen Box screening cascade and EC50); format: cell-based, Echinococcus multilocularis; settings: for activity in the screen at 10 μM (confirmed in triplicates, >20% relative PGI release): 5 and 12 days
[2] = system: E. granulosus protoscoleces; set-up: method as in Bonilla et al., 2008; settings: after 48 h; ref Bonilla et al., 2008; cited from earlier work
[3] = system: mitochondrial respiration of E. multilocularis GL cells; assay: Mitochondrial respiration (OCR) in permeabilized GL cells by Seahorse XFp analyzer; format: cell-based, Echinococcus multilocularis; settings: 1 μM
[4] = set-up: method as in Smith et al., 2018; settings: mice, oral, single dose of 6 mg/kg; ref Smith et al., 2018; cited from earlier work
[5] = system: E. multilocularis metacestodes; assay: BPQ treatment of E. multilocularis infected mice; format: in vivo, Balb/c mice; settings: for parasite burden compared to the control: p.o. in corn oil, 5 days per week, 4 weeks, BPQ 100 mg/kg, ABZ 200 mg/kg
Description: Balb/c mice, 6 weeks old, were purchased from Charles River Laboratories (Sulzheim, Germany) and used for in vivo experiments when they were 8 weeks old and weighted approximately 20 g. The mice were housed in a type 3 cage containing enrichment in the form of a cardboard house and paper and woodchip bedding with a maximum of seven mice per cage. […] Food and water was provided ad libitum. Experimentally infected mice were treated with BPQ to elucidate the efficacy of the drug in vivo. To infect mice, in vitro grown E. multilocularis metacestodes (isolate […]) were washed in PBS, were mechanically destroyed by pipetting and the resulting suspension was centrifuged for 5 min at 500 g. The parasite tissue was then taken up in an equal volume of PBS. Each mouse was subsequently infected intraperitoneally (i.p.) with 200 μl of this suspension. […] infected mice were randomly distributed into 3 treatment groups (8 animals per group) with 4 animals per cage. […] Treatments of mice started 2 weeks post-infection and lasted for 4 weeks, with consecutive treatment of mice for 5 days per week, followed by an interruption of treatment for 2 days for recovery. All treatments were administered by oral gavage in a volume of 50 μl, with ABZ and BPQ being suspended in corn oil. After four weeks, all mice were anesthetized with isoflurane and subsequently euthanized by CO2. The parasitic tissue from each mouse was completely resected and weighed. The mass of the resected parasitic tissue was used for statistical analyses of the experiment. […] The significance level was set to p < 0.05. Figures were prepared in R and Adobe Illustrator 2015.1.0.

[6] = system: E. multilocularis metacestodes; assay: Vesicle viability assay by Alamar Blue (MIC); format: cell-based, Echinococcus multilocularis; settings: Echinococcus multilocularis, 288 h; Alamar Blue vesicle viability assay, 12 days of incubation; read-out: E. multilocularis MIC
Description: The setup was the same as for PGI-assay EC50 calculations and it was performed in triplicates. […] Data was used to calculate the minimal inhibitory concentrations (MICs) of these compounds on metacestodes.

[7] = system: E. multilocularis metacestodes; assay: PGI-assay under anaerobic/aerobic conditions; settings: oxygen-free atmosphere, 5 days
[8] = system: human foreskin fibroblasts (HFF); assay: Cytotoxicity by Alamar Blue assay in human foreskin fibroblasts; settings: Homo sapiens, Fibroblast, 120 h
[9] = system: E. multilocularis metacestodes; assay: Transmission electron microscopy of BPQ-treated metacestodes; format: cell-based, Echinococcus multilocularis
Description: The preparation of the samples for transmission electron microscopy (TEM) was done according to the protocol of [Hemphill and Croft (1997)]. In short, E. multilocularis metacestodes were distributed to 48-well-plates and incubated with DMSO or BPQ (30–0.04 μM) as described above. After an incubation period of 5 days, metacestodes were fixed in 2% glutaraldehyde in 0.1 M sodium cacodylate buffer; pH = 7.3 for 1 h. Next, the samples were stained for 2 h in a 2% osmium tetroxide solution cacodylate buffer, and subsequently pre-stained in a saturated uranyl acetate solution for 30 min. After washing the samples with water, they were dehydrated stepwise by washing in increasing concentrations of ethanol (30%, 50%, 70%, 90%, and three times 100%). The samples were then embedded in Epon 812 resin with three subsequent resin changes during 2 days and incubated at 65 °C overnight for polymerization. Sections for TEM (80 nm) were cut using an ultramicrotome (Reichert and Jung, Vienna, Austria), and were loaded onto formvar-carbon coated nickel grids (Plano GmbH, Marburg, Germany). The specimens were finally stained with uranyl acetate and lead citrate, and were viewed on a CM12 transmission electron microscope (Philips Electron Optics, Eindhoven, Netherlands) that operates at 80 kV.

[10] = BPQ levels in orally treated mice (literature); format: in vivo; settings: extrapolation to 100 mg/kg
[11] = system: Reuber rat hepatoma (RH) cells; assay: Cytotoxicity by Alamar Blue assay in rat hepatoma cells; format: cell-based; settings: 120 h, Alamar Blue, 5 days
[12] = 1 µM, triplicates, 5 days of incubation
[13] = 1 µM, triplicates, 12 days of incubation

CC(=O)OCC1OC([S-])C(OC(C)=O)C(OC(C)=O)C1OC(C)=O.CCP(CC)CC.[Au+] (stereo not shown) [MMV688978, Auranofin, reference compound]
activity against metacestodes at 1 μM ([1]; triplicates): not at 1 μM
PGI release, % of Tx-100 control, average, 5d [1, 12]: -2.65%
PGI release, % of Tx-100 control, average, 12d [1, 13]: -1.30%
activity in the screen at 10 μM (confirmed in triplicates, >20% relative PGI release) [1]: active
PGI release, % of the Tx-100 control, 5d ([1]; 10 µM, singlets, 5 days of incubation): 84.86%
PGI release, % of the Tx-100 control, 12d ([1]; 10 µM, singlets, 12 days of incubation): 96.09%
PGI release, % of Tx-100 control, average, 5d ([1]; confirmatory screening at 10 µM in triplicates, 5 days of incubation, values as % of Tx-100 control): 47.33%
PGI release, % of Tx-100 control, average, 12d ([1]; confirmatory screening at 10 µM in triplicates, 12 days of incubation, values as % of Tx-100 control): 61.40%
concentration killing protoscoleces [2]: 2.5 µM

CC(C)(C)[C@H]1CC[C@H](CC2=C(O)C(=O)c3ccccc3C2=O)CC1 [MMV689480, Buparvaquone]
oxygen consumption rate (OCR) after addition of drug ([3]; permeabilized GL cells fed with succinate): rapidly decreased
inhibition of mitochondrial electron transport chain complex ([3]; OCR restored by ascorbate/TMPD, not by succinate or glycerol 3-phosphate): selectively inhibits complex III
Cmax [4]: 1200 nM
parasite burden compared to the control [5]: failed to reduce the parasite burden
parasite burden compared to the control ([5]; listed as BPQ): no significant difference
adverse effects due to treatment ([5]; whole course of treatment, 4 weeks p.o.): None of the mice showed signs of adverse effects
activity against metacestodes at 1 μM ([1]; triplicates): distinct in vitro activities
PGI release, % of Tx-100 control, average, 5d [1, 12]: 1.05%
PGI release, % of Tx-100 control, average, 12d [1, 13]: 52.04%
activity in the screen at 10 μM (confirmed in triplicates, >20% relative PGI release) [1]: active
cytotoxicity at 10 µM ([1]; Echinococcus multilocularis, 120 h, 10 µM, singlets, 5 days of incubation, read-out: PGI release, % of the Tx-100 control, 5d): 27.4%
EC50 ([1]; Echinococcus multilocularis, 120 h, PGI-assay, 5 days in vitro, read-out: E. multilocularis EC50): 2.87 µM
PGI release, % of Tx-100 control at 10 µM ([1]; Echinococcus multilocularis, 120 h, confirmatory screening at 10 µM in triplicates, 5 days of incubation, values as % of Tx-100 control, read-out: PGI release, % of Tx-100 control, average, 5d): 41.2%
cytotoxicity at 10 µM ([1]; Echinococcus multilocularis, 288 h, 10 µM, singlets, 12 days of incubation, read-out: PGI release, % of the Tx-100 control, 12d): 38.6%
PGI release, % of Tx-100 control at 10 µM ([1]; Echinococcus multilocularis, 288 h, confirmatory screening at 10 µM in triplicates, 12 days of incubation, values as % of Tx-100 control, read-out: PGI release, % of Tx-100 control, average, 12d): 63.7%
IC50 ([1]; Echinococcus multilocularis, read-out: IC50 against in vitro cultured E. multilocularis metacestodes): 2.87 µM
toxicity against E. multilocularis metacestodes compared with host cells (HFF, RH) ([1]; comparison of EC50 with IC50 on mammalian cells): specific toxicity
MIC [6]: 0.56 µM (≈ 0.183 µg/mL)
damage on metacestodes (PGI-assay), anaerobic, 10 μM or lower ([7]; 10 μM or lower): did not induce damage
damage on metacestodes (PGI-assay), anaerobic, 30 μM ([7]; 30 μM): active
IC50 ([8]; read-out: HFF confluent IC50): 48.6 µM
IC50 ([8]; read-out: HFF preconfluent IC50): 5.99 µM
ultrastructural alterations (TEM) at 1 μM ([9]; 1 μM, 5 days): membrane stacks were observed, and the GL started to separate from the LL
ultrastructural alterations (TEM) at 3 μM ([9]; 3 μM, 5 days): metacestode integrity was seriously impaired
lowest concentration with ultrastructural damage (TEM) ([9]; 5 days of BPQ): 0.3 µM
Cmax extrapolated (assuming linear correlation) [10]: 20000 nM
IC50 ([11]; confluent cells, read-out: RH confluent IC50): 17.4 µM
IC50 ([11]; preconfluent cells, read-out: RH preconfluent IC50): 8.47 µM
